Laboratory results: patent US11464770B2, “Anticancer pharmaceutical composition” (NATIONAL CANCER CENTER, priority 2016, dated 2022)
Read-outs that look alike come from different tables or passages of the source.

Test system: pancreatic cancer cell lines (e.g. MIA PaCa-2)
Assay: Cell based assay, cell viability (CellTiter-Glo), pancreatic cancer cell lines
Conditions: Homo sapiens
Protocol: Commercially available bladder cancer, prostate cancer, lung cancer, breast cancer, blood cancer, pancreatic cancer, colorectal cancer, brain cancer, neuroblastoma, melanoma, liver cancer, cervical carcinoma, ovarian cancer, renal cancer, and papilloma cell lines were each treated with trypsin-EDTA and cultured, followed by being seeded in each well of a 96 well plate. After 24 hours of treatment at constant temperature, the respective cells were treated with the candidate compound so that a final concentration became 0 to 2 μM. The treated cells were additionally cultured for 72 hours, and cell viability was measured by using an ATP detection method (CellTiter-Glo® Luminescent Cell Viability Assay, Promega).

[1] = pancreatic cancer cell line AsPC-1, 72 hours, read-out: IC50, AsPC-1
[2] = pancreatic cancer cell line BxPC-3, 72 hours, read-out: IC50, BxPC-3
[3] = pancreatic cancer cell line CFPAC-1, 72 hours, read-out: IC50, CFPAC-1
[4] = pancreatic cancer cell line Capan-1, 72 hours, read-out: IC50, Capan-1
[5] = pancreatic cancer cell line Capan-2, 72 hours, read-out: IC50, Capan-2
[6] = pancreatic cancer cell line MIA PaCa-2, 72 hours, read-out: IC50, MIA PaCa-2
[7] = pancreatic cancer cell line PANC-1, 72 hours, read-out: IC50, PANC-1

IC50 [1] [nM]	IC50 [2] [nM]	IC50 [3] [nM]	IC50 [4] [nM]	IC50 [5] [nM]	IC50 [6] [nM]	IC50 [7] [nM]	SMILES
> 2000	> 2000	> 10000	> 2000	> 2000	1590	> 2000	CC(=O)c1c([S+](C)[O-])[nH]c2c(Br)ccc(Cl)c2c1=O (centres unmarked) [Compound 1, 3-acetyl-8-bromo-5-chloro-2-(methylsulfinyl)quinolin-4(1H)-one]
> 2000	> 2000	> 10000	> 2000	> 2000	> 2000	> 2000	CSc1[nH]c2c(Br)ccc(Cl)c2c(=O)c1C(C)=O [Compound 2, 3-acetyl-8-bromo-5-chloro-2-(methylthio)quinolin-4(1H)-one]
> 2000	> 2000	> 10000	> 2000	> 2000	> 2000	> 2000	CC(=O)c1c(SCc2ccccc2)[nH]c2c(Br)ccc(Cl)c2c1=O [Compound 3, 3-acetyl-2-(benzylthio)-8-bromo-5-chloroquinolin-4(1H)-one]
> 2000	> 2000	> 10000	> 2000	> 2000	> 2000	> 2000	CSc1c(C(C)=O)c(=O)c2c(Cl)ccc(Br)c2n1C [Compound 5, 3-acetyl-8-bromo-5-chloro-1-methyl-2-(methylthio)quinolin-4(1H)-one]
> 2000	> 2000	> 10000	> 2000	> 2000	1350	> 2000	CC(=O)c1c([S+](C)[O-])[nH]c2c(Cl)ccc(Cl)c2c1=O (centres unmarked) [Compound 6, 3-acetyl-5,8-dichloro-2-(methylsulfinyl)quinolin-4(1H)-one]
> 2000	> 2000	> 10000	> 2000	> 2000	> 2000	> 2000	CSc1c(C(C)=O)c(=O)c2cc(F)ccc2n1C [Compound 7, 3-acetyl-6-fluoro-1-methyl-2-(methylthio)quinolin-4(1H)-one]
> 2000	> 2000	> 10000	> 2000	> 2000	> 2000	> 2000	CSc1[nH]c2ccc(F)cc2c(=O)c1C(C)=O [Compound 8, 1-(6-fluoro-4-hydroxy-2-(methylthio)quinolin-3-yl)ethan-1-one]
> 2000	> 2000	> 10000	> 2000	> 2000	1030	> 2000	CC(=O)c1c([S+](C)[O-])n(C(=O)c2ccc(Br)cc2)c2c(Br)ccc(Cl)c2c1=O (centres unmarked) [Compound 9, 3-acetyl-8-bromo-1-(4-bromobenzoyl)-5-chloro-2-(methylsulfinyl)quinolin-4(1H)-one]
> 2000	> 2000	> 10000	> 2000	> 2000	> 2000	> 2000	CC(=O)c1c(SCc2ccc(Cl)cc2)[nH]c2c(Br)ccc(Cl)c2c1=O [Compound 10, 3-acetyl-8-bromo-5-chloro-2-((4-chlorobenzyl)thio)quinolin-4(1H)-one]
> 2000	> 2000	> 10000	> 2000	> 2000	> 2000	> 2000	CC(=O)c1c([S+]([O-])Cc2ccc(Cl)cc2)[nH]c2c(Br)ccc(Cl)c2c1=O (centres unmarked) [Compound 11, 3-acetyl-8-bromo-5-chloro-2-((4-chlorobenzyl)sulfinyl)quinolin-4(1H)-one]
> 2000	> 2000	> 10000	> 2000	> 2000	> 2000	> 2000	CC(=O)c1c(Sc2ccccc2)[nH]c2c(Br)ccc(Cl)c2c1=O [Compound 12, 3-acetyl-8-bromo-5-chloro-2-(phenylthio)quinolin-4(1H)-one]
> 2000	> 2000	> 10000	> 2000	> 2000	> 2000	> 2000	CC(=O)c1c([S+]([O-])c2ccccc2)[nH]c2c(Br)ccc(Cl)c2c1=O (centres unmarked) [Compound 13, 3-acetyl-8-bromo-5-chloro-2-(phenylsulfinyl)quinolin-4(1H)-one]
> 2000	> 2000	> 10000	> 2000	> 2000	> 2000	> 2000	COc1ccccc1Sc1[nH]c2c(Br)ccc(Cl)c2c(=O)c1C(C)=O [Compound 14, 3-acetyl-8-bromo-5-chloro-2-((2-methoxyphenyl)thio)quinolin-4(1H)-one]
> 2000	> 2000	> 10000	> 2000	> 2000	1630	> 2000	COc1ccccc1[S+]([O-])c1[nH]c2c(Br)ccc(Cl)c2c(=O)c1C(C)=O (centres unmarked) [Compound 15, 3-acetyl-8-bromo-5-chloro-2-((2-methoxyphenyl)sulfinyl)quinolin-4(1H)-one]
> 2000	> 2000	> 10000	> 2000	> 2000	> 2000	> 2000	CC(=O)c1c(Sc2ccc(Br)cc2)[nH]c2c(Br)ccc(Cl)c2c1=O [Compound 16, 3-acetyl-8-bromo-2-((4-bromophenyl)thio)-5-chloroquinolin-4(1H)-one]
> 2000	> 2000	> 10000	> 2000	> 2000	> 2000	> 2000	CC(=O)c1c([S+]([O-])c2ccc(Br)cc2)[nH]c2c(Br)ccc(Cl)c2c1=O (centres unmarked) [Compound 17, 3-acetyl-8-bromo-2-((4-bromophenyl)sulfinyl)-5-chloroquinolin-4(1H)-one]
> 2000	> 2000	> 10000	> 2000	> 2000	> 2000	> 2000	CSc1c(C(C)=O)c(=O)c2c(Cl)ccc(Br)c2n1C(C)=O [Compound 18, 1,1′-(8-bromo-5-chloro-2-(methylthio)-4-oxoquinoline-1,3(4H)-diyl)bis(ethan-1-one)]
> 2000	> 2000	> 10000	> 2000	> 2000	> 2000	> 2000	CC(=O)c1c([S+](C)[O-])n(C(C)=O)c2c(Br)ccc(Cl)c2c1=O (centres unmarked) [Compound 19, 1,1′-(8-bromo-5-chloro-2-(methylsulfinyl)-4-oxoquinoline-1,3(4H)-diyl)bis(ethan-1-one)]
> 2000	> 2000	> 10000	> 2000	> 2000	> 2000	> 2000	CC(=O)c1c([S+]([O-])Cc2ccccc2)n(C(=O)c2ccc(Br)cc2)c2c(Br)ccc(Cl)c2c1=O (centres unmarked) [Compound 20, 3-acetyl-2-(benzylsulfinyl)-8-bromo-1-(4-bromobenzoyl)-5-chloroquinolin-4(1H)-one]
> 2000	> 2000	> 10000	> 2000	> 2000	> 2000	> 2000	CC(=O)c1c(S(C)(=O)=O)n(C(=O)c2ccc(Br)cc2)c2c(Br)ccc(Cl)c2c1=O [Compound 21, 3-acetyl-8-bromo-1-(4-bromobenzoyl)-5-chloro-2-(methylsulfonyl)quinolin-4(1H)-one]
> 2000	> 2000	> 10000	> 2000	> 2000	> 2000	> 2000	CC(=O)c1c([S+](C)[O-])n(Cc2ccc(F)c(Cl)c2)c2c(Br)ccc(Cl)c2c1=O (centres unmarked) [Compound 22, 3-acetyl-8-bromo-5-chloro-1-(3-chloro-4-fluorobenzyl)-2-(methylsulfinyl)quinolin-4(1H)-one]
> 2000	> 2000	> 10000	> 2000	> 2000	> 2000	> 2000	CC(=O)c1c(SCc2ccccc2)n(C(=O)c2ccc(Br)cc2)c2c(Br)ccc(Cl)c2c1=O [Compound 23, 3-acetyl-2-(benzylthio)-8-bromo-1-(4-bromobenzoyl)-5-chloroquinolin-4(1H)-one]
> 2000	> 2000	> 10000	> 2000	> 2000	> 2000	> 2000	CC(=O)c1c(SC(C)C)[nH]c2c(Br)ccc(Cl)c2c1=O [Compound 24, 3-acetyl-8-bromo-5-chloro-2-(isopropylthio)quinolin-4(1H)-one]
> 2000	> 2000	> 10000	> 2000	> 2000	> 2000	> 2000	CC(=O)c1c([S+]([O-])C(C)C)[nH]c2c(Br)ccc(Cl)c2c1=O (centres unmarked) [Compound 25, 3-acetyl-8-bromo-5-chloro-2-(isopropylsulfinyl)quinolin-4(1H)-one]
> 2000	> 2000	> 10000	> 2000	> 2000	> 2000	> 2000	CC(=O)c1c([S+]([O-])C(C)c2ccccc2)[nH]c2c(Br)ccc(Cl)c2c1=O (centres unmarked) [Compound 26, 3-acetyl-8-bromo-5-chloro-2-((1-phenylethyl)sulfinyl)quinolin-4(1H)-one]
> 2000	> 2000	> 10000	> 2000	> 2000	> 2000	> 2000	CC(=O)c1c(SCc2cccc(C#N)c2)[nH]c2c(Br)ccc(Cl)c2c1=O [Compound 27, 3-(((3-acetyl-8-bromo-5-chloro-4-oxo-1,4-dihydroquinolin-2-yl)thio)methyl)benzonitrile]
> 2000	> 2000	> 10000	> 2000	> 2000	880	> 2000	CC(=O)c1c([S+]([O-])Cc2cccc(C#N)c2)[nH]c2c(Br)ccc(Cl)c2c1=O (centres unmarked) [Compound 28, 3-(((3-acetyl-8-bromo-5-chloro-4-oxo-1,4-dihydroquinolin-2-yl)sulfinyl)methyl)benzonitrile]
> 2000	> 2000	> 10000	> 2000	> 2000	> 2000	> 2000	CC(=O)c1c(SCc2ccc(F)c(Cl)c2)[nH]c2c(Br)ccc(Cl)c2c1=O [Compound 30, 3-acetyl-8-bromo-5-chloro-2-((3-chloro-4-fluorobenzyl)thio)quinolin-4(1H)-one]

SMILES	IC50 [1] [nM]	IC50 [2] [nM]	IC50 [3] [nM]	IC50 [4] [nM]	IC50 [5] [nM]	IC50 [6] [nM]	IC50 [7] [nM]
CC(=O)c1c([S+]([O-])Cc2ccccc2)nc2c(Br)ccc(Cl)c2c1O (centres unmarked) [Compound 4]	> 2000	> 2000	> 10000	> 2000	> 2000	1340	> 2000
